Measurements as given in patent US20250340592A1, “MAMMALIAN MILK-DERIVED PEPTIDES WITH ANTIMICROBIAL ACTIVITY” (MATRUBIALS INC., priority 2022, published 2025).
Where no end group is shown, it is not given here.

Columns and labels:
L. crispatus = assay: direct kill assay (time-kill, FIG. 8); type: cell-based, Lactobacillus crispatus; conditions: 0.375, 0.75, 1.5 mg/ml peptide, spotted 30 min post incubation
Protocol: (§1) For these peptides, 0.375 mg/ml concentration is sufficient to cause loss of viability of G. vaginalis and L. iners as compared to the absence of peptides. In FIG. 8A, M1-M8 peptides (SEQ ID NOS: 1, 6, 11, 16, 21, 26, 31, and 36) were tested using direct kill assays. Equal inoculums of G. vaginalis, L. iners and L. crispatus were incubated with either water (0.00), or 0.375 mg/ml, 0.75 mg/ml and 1.5 mg/ml. of peptides. Aliquots were spotted 30 minutes (min) post incubation on human blood tween (HBT) bilayer media, Tryptic soy agar (+5% sheep blood) or MRS (de Man, Rogosa, and Sharpe) agar plates respectively. For these peptides, 0.375 mg/ml concentration is sufficient to cause loss of viability of G. vaginalis and L. iners as compared to the absence of peptides.

G. vaginalis = assay: direct kill assay (time-kill, FIG. 8); type: cell-based, Gardnerella vaginalis; conditions: 0.375, 0.75, 1.5 mg/ml peptide, spotted 30 min post incubation
Protocol: as §1

L. iners = assay: direct kill assay (time-kill, FIG. 8); type: cell-based, Lactobacillus iners; conditions: 0.375, 0.75, 1.5 mg/ml peptide, spotted 30 min post incubation
Protocol: as §1

[1] = test system: EpiVaginal tissue model (Mattek); type: cell-based
Protocol: Table 2 below show the results of peptides M6 (SEQ ID NO: 26) and M14 (SEQ ID NO: 177) were assayed for their impact on vaginal irritation using the Epi Vaginal model to determine the exposure time to decrease the tissue viability to 50% (ET50) in EpiVaginal™ tissue model (Mattek). In brief, after exposure to the M6 and M14 peptides at 20 mg/ml final concentration for various times, toxicity was determined by measuring the relative conversion of MTT (3-(4,5-dimethylthiazol-2-yl)-2,5-dephenyltetrazolium bromide) in the vaginal tissue samples treated with peptide compared to tissues treated with a solvent negative control. Positive control was Triton-X-100 at 1% final concentration.

S. epidermidis = assay: colony-forming assay, CFU/ml over time (FIG. 10C); type: cell-based, Staphylococcus epidermidis; conditions: peptide 0.5% (5 mg/ml), 0.8% NaCl, T=0 up to 60 minutes
Description: (§2) FIGS. 10A, 10B, and 10C are graphs depicting bacterial viability in colony forming units (CFU) per milliliter (ml) over time (minutes) in the presence of select polypeptides: SEQ ID NO: 26 (M6); SEQ ID NO: 31 (M7); SEQ ID NO: 177 (M14); SEQ ID NO: 213 (M16); and SEQ ID NO: 291 (M22) in comparison to Indolicidin (IND) in the presence of P. aeruginosa (FIG. 10A), S. aureus MRSA (FIG. 10B), and S. epidermidis (FIG. 10C), respectively.
(§3) In FIGS. 10A, 10B, and 10C, quantitative colony-forming units/ml were assayed using the indicated peptides at a final concentration of 0.5% (5 mg/ml). For this colony-forming assay, peptides were incubated with indicated bacterial strains in 0.8% NaCl, and aliquots were removed starting time T=0, up to 60 minutes, followed by serial dilution and plating on Tryptic soy agar plates for overnight incubation, and enumeration of CFU/ml.

S. aureus MRSA [2] = assay: direct kill assay of formulated peptide (FIG. 13); type: cell-based, Staphylococcus aureus; conditions: 0.5% by weight peptide in 20% propylene glycol and 2% hydroxypropyl cellulose
Protocol: (§4) FIG. 13 depicts the retention of antimicrobial activity of the indicated peptides M6 (SEQ ID NO: 26), M14 (SEQ ID NO:177), M16 (SEQ ID NO: 213) and M22 (SEQ ID NO: 291), with each peptide formulated in a composition with 20% propylene glycol and 2% hydroxypropyl cellulose (F is the formulation without a peptide), in the presence of S. aureus MRSA, from 0 minutes (min) to 60 minutes, as indicated, where the amount of growth is indicated as: 4 is full growth; 3 is too many colonies to count; 2 is countable colonies; and 1 is no growth.
(§5) In FIG. 13, the impact of the formulation comprising 20% propylene glycol and 2% hydroxypropyl cellulose and 0.5% by weight of peptide M6 (SEQ ID NO: 26), M7 (SEQ ID NO: 31), M14 (SEQ ID NO: 177), M16 (SEQ ID NO: 213), or M22 (SEQ ID NO: 291) was tested using a direct kill assay.

A. baumannii [3] = assay: growth of A. baumannii with peptide (FIG. 17); type: cell-based, Acinetobacter baumannii; conditions: 250 μg/ml peptide, 0.01×MH broth
A. baumannii [4] = assay: direct kill assay of formulated peptide (FIG. 12D); type: cell-based, Acinetobacter baumannii; conditions: 0.5% peptide in 20% propylene glycol and 2% hydroxypropyl cellulose, 0-60 min
Protocol: as §4, with “FIGS. 12A, 12B, 12C, and 12D depict” for “FIG. 13 depicts”, “G. vaginalis (FIG. 12A), L. iners (FIG. 12B), L. crispatus (FIG. 12C), or A. baumannii (FIG. 12D),” for “S. aureus MRSA,”
as §5, with “FIGS. 12A, 12B, 12C, and 12D,” for “FIG. 13,”, “in” for “using”, “assay as described herein.” for “assay.”

[5] = test system: MRSN panel P. aeruginosa strain NR-51553; type: cell-based, Pseudomonas aeruginosa; conditions: 0.5% CMC and 0.01×MH broth
Description: FIGS. 15A-15B show the growth of P. aeruginosa strain NR-51553 of FIG. 14A in a modified CLSI-based broth dilution assay, in the presence of peptide M16 (SEQ ID NO: 213) in 0.01×MH broth (FIG. 15A) and in the presence of peptide M16 in 0.01×MH broth and 0.5% carboxymethyl cellulose (CMC) (FIG. 15B), where the amount of growth is indicated as: 4 is full growth; 3 is too many colonies to count; 2 is countable colonies; and 1 is no growth.
FIG. 14A indicates sensitive(S) or resistant (R) relative to the listed antibiotic for eight of the more peptide-resistant […] strains of 100 MRSN panel strains (NR-51553, NR-51556, NR-51570, NR51597, NR-51520, NR-51546, NR-51574, and NR-51588). […] CLSI-based method described in CLSI document M07-A10, Vol. 35, No. 2, 2015 (ISBN 1-56238-988-2).

P. aeruginosa [6] = assay: colony-forming assay, CFU/ml over time (FIG. 10A); type: cell-based, Pseudomonas aeruginosa; conditions: peptide 0.5% (5 mg/ml); for sensitivity of P. aeruginosa to peptide (CFU/ml): 0.8% NaCl, T=0 up to 60 minutes; for sensitivity of P. aeruginosa to peptide as compared to Indolicidin: after 20 minutes
Description: as §2, §3

S. aureus MRSA [7] = assay: colony-forming assay, CFU/ml over time (FIG. 10B); type: cell-based, Staphylococcus aureus; conditions: peptide 0.5% (5 mg/ml); for sensitivity of S. aureus to peptide (CFU/ml): 0.8% NaCl, T=0 up to 60 minutes; for sensitivity of S. aureus MRSA to peptide as compared to Indolicidin: after 20 minutes
Description: as §2, §3

P. aeruginosa [8] = assay: time-kill assays (FIG. 9); type: cell-based, Pseudomonas aeruginosa; conditions: as compared to M1-M5
Protocol: FIG. 9. depicts the antibiotic activity (in concentration of polypeptide at 0.375 mg/ml (****), 0.75 mg/ml (***), 1.5 mg/ml (**), or 3 mg/ml (*), as indicated) for each of polypeptides (SEQ ID NO: 1 (M1); SEQ ID NO: 6 (M2); SEQ ID NO: 11 (M3); SEQ ID NO: 16 (M4); SEQ ID NO: 21 (M5); SEQ ID NO: 26 (M6); SEQ ID NO: 31 (M7); SEQ ID NO: 36 (M8); SEQ ID NO: 41 (M9); SEQ ID NO: 76 (M10); SEQ ID NO: 106 (M11); SEQ ID NO: 141 (M12); SEQ ID NO: 142 (M13); SEQ ID NO: 177 (M14); SEQ ID NO:178 (M15); SEQ ID NO: 213 (M16); SEQ ID NO: 219 (M18), SEQ ID NO: 220 (M19); SEQ ID NO: 256 (M21); and SEQ ID NO: 291 (M22)) against P. aeruginosa and S. aureus MRSA, as indicated.
In FIG. 9, the bacterial pathogens P. aeruginosa and S. aureus—associated with skin, burn and wound infections were tested.

With NTNRPRTKRA (Synthetic: M5) the “polypeptides target L. crispatus (time-kill images)” value (“polypeptides target L. crispatus” for short) (L. crispatus) was “not L. crispatus”, the “polypeptides target G. vaginalis (time-kill images)” value (shortened to “polypeptides target G. vaginalis”) (G. vaginalis) was “target” and the “polypeptides target L. iners (time-kill images)” value (“polypeptides target L. iners” below) (L. iners) was “target”.

In the case of RGPPKSCRKRD [M14, RGPPKSCRKRD], the “ET50” value [1] is reported as greater than 24 h.

HQKMAKPWTQ (Synthetic: M4) was tested, and the “polypeptides target L. crispatus” value (L. crispatus) was “not L. crispatus”, the “polypeptides target G. vaginalis” value (G. vaginalis) was “target” and the “polypeptides target L. iners” value (L. iners) was “target”.

With HKYAVRVVKK [M16, HKYAVRVVKK] the “sensitivity of S. epidermidis to peptide (CFU/ml)” value (S. epidermidis) was “also sensitive”, the “antibacterial activity against S. aureus MRSA in formulation” value (from here on “antibacterial activity”) (S. aureus MRSA [2]) was “retains antibacterial activity” and the “efficacy on A. baumannii, M16 at 4 hours compared to M14 at 24 hours” value (A. baumannii [3]) was “more efficacious”. The “sensitivity of growth of A. baumannii, as compared to M22” value (A. baumannii [4]) was “more sensitive”, the “minimal bactericidal concentration (MBC)” value [5] was 15 µg/mL and the “sensitivity of P. aeruginosa to peptide (CFU/ml)” value (P. aeruginosa [6]) was “particularly sensitive”. For the same substance, the “sensitivity of P. aeruginosa to peptide as compared to Indolicidin” value (P. aeruginosa [6]) was “more sensitive”, the “sensitivity of S. aureus to peptide (CFU/ml)” value (S. aureus MRSA [7]) was “also sensitive” and the “sensitivity of S. aureus MRSA to peptide as compared to Indolicidin” value (S. aureus MRSA [7]) was “more sensitive”.

With RPRIPKASAK [M6, RPRIPKASAK] the “ET50” value [1] was greater than 24 h.

GKRKPVTRAR (Synthetic: M2) was tested, and the “polypeptides target L. crispatus” value (L. crispatus) was “not L. crispatus”, the “polypeptides target G. vaginalis” value (G. vaginalis) was “target” and the “polypeptides target L. iners” value (L. iners) was “target”.

QHQKAKKPWT (Synthetic: M3) was tested, and the “polypeptides target L. crispatus” value (L. crispatus) was “not L. crispatus”, the “polypeptides target G. vaginalis” value (G. vaginalis) was “target” and the “polypeptides target L. iners” value (L. iners) was “target”.

In the case of PVPQKVRPQR (Synthetic: M7), the “sensitivity of S. epidermidis to peptide (CFU/ml)” value (S. epidermidis) is reported as “also sensitive”, the “effectiveness in reducing the viability of P. aeruginosa” value (P. aeruginosa [8]) is reported as “more effective” and the “antibacterial activity” value (S. aureus MRSA [2]) is reported as “retains antibacterial activity”. The “polypeptides target L. crispatus” value (L. crispatus) was “not L. crispatus”, the “polypeptides target G. vaginalis” value (G. vaginalis) was “target” and the “sensitivity of P. aeruginosa to peptide (CFU/ml)” value (P. aeruginosa [6]) was “particularly sensitive”. For the same substance, the “sensitivity of P. aeruginosa to peptide as compared to Indolicidin” value (P. aeruginosa [6]) was “more sensitive”, the “polypeptides target L. iners” value (L. iners) was “target” and the “sensitivity of S. aureus to peptide (CFU/ml)” value (S. aureus MRSA [7]) was “also sensitive”. The “sensitivity of S. aureus MRSA to peptide as compared to Indolicidin” value (S. aureus MRSA [7]) was “more sensitive”.

RQPRTHKYAVRVVKK (Synthetic: M15) was tested, and the “effectiveness in reducing the viability of P. aeruginosa” value (P. aeruginosa [8]) was “more effective”.

In the case of KTPKAVNKCR (Synthetic: M8), the “effectiveness in reducing the viability of P. aeruginosa” value (P. aeruginosa [8]) is reported as “more effective”, the “polypeptides target L. crispatus” value (L. crispatus) is reported as “not L. crispatus” and the “polypeptides target G. vaginalis” value (G. vaginalis) is reported as “target”. The “polypeptides target L. iners” value (L. iners) was “target”.

In the case of HYYAVAVVK (Synthetic: M22), the “antibacterial activity” value (S. aureus MRSA [2]) is reported as “retains antibacterial activity” and the “time from which viability of S. aureus MRSA is reduced” value (S. aureus MRSA [2]) is reported as 0 min.

For Triton-X-100 [reference compound], the “ET50” value [1] was 1.55 h.

PKVERRPRPR (Synthetic: M1) was tested, and the “polypeptides target L. crispatus” value (L. crispatus) was “not L. crispatus”, the “polypeptides target G. vaginalis” value (G. vaginalis) was “target” and the “polypeptides target L. iners” value (L. iners) was “target”.
